Reference: patent US6090987A, “Metal-ligand complex catalyzed processes” (Union Carbide Chemicals & Plastics Technology Corporation, priority 1998, dated 2000)

How the values were obtained:
[1] = Residual propylene hydroformylation activity after heat treatment, Ligand F catalyst (Table 1)
Description: A catalyst solution (100 milliliters) was generated in a six ounce Fisher Porter Bottle by dissolving 0.063 grams of rhodium dicarbonyl 2,4-pentanedionate, 0.8 grams of Ligand F, 20 grams of n-butyraldehyde, and 78.7 grams of tetraethylene glycol dimethyl ether, subsequently alternately evacuating and flushing with nitrogen; and finally adding 60 psi of CO:H2, and placing the bottles in a 100° C. oil bath for 1 hour.
(§1) After closing the reactor, the system was again purged with nitrogen and place in an oil bath heated to 100° C. The hydroformylation reaction in each experiment was conducted at a total gas pressure of 160 psig. The target partial pressure of hydrogen, carbon monoxide, and propylene being about 45 psia, 45 psia, and 5 psia respectively, with the remainder being nitrogen. The flows of the feed gases (carbon monoxide, hydrogen, propylene, and nitrogen) were controlled individually with mass flow meters. The feed gases were dispersed into the precursor solution via stainless steel 7-micron filters used as spargers. The unreacted portion of the feed gases stripped out the product aldehydes. Each experiment was operated for 24 hours under the above conditions. The activity is defined as the observed reaction rate divided by the predicted reaction rate. The reaction rates are expressed in terms of gram moles per liter per hour.
The same procedure as in Example 2 was followed with the exception that a slow stream of 1,2-propadiene was purged through the initially generated catalyst solution for 5 minutes. Excess was then removed by alternately evacuating and flushing with nitrogen. The resulting solution was heated at 125° C. as in Example 2, and 20 milliliters of the resulting solution was transferred to a glass reactor as in Example 2 and the activity determined.
(§2) The same procedure as in Example 3 was followed except 2 milliliters of 1,3-butadiene was added to the generated catalyst and stirred for 5 minutes. Excess 1,3-butadiene was then removed by alternate evacuation and flushing with nitrogen. The resulting solution was heated at 125° C. as in Example 2, and 20 milliliters of the resulting solution was transferred to a glass reactor as in Example 2 and the activity determined.
The same procedure as in Example 4 was followed with the exception that 50 milliliters of a catalyst solution generated as in Example 2 was treated with 0.5 milliliters of 2-methyl-1,3-butadiene (isoprene) in place of 1,3-butadiene.
A catalyst solution (20 milliliters) was generated in a Fisher Porter Bottle as in Example 2 under 60 psi CO:H2 for 1 hour, then cooled to room temperature and treated with 0.5 milliliters of 1,3-butadiene. The solution was removed from the Fisher Bottle by hypodermic syringe and transferred to a 100 milliliter stirred stainless vessel and maintained at 140° C. under 15 psi nitrogen for 14 hours. The resulting solution was then transferred to the glass reactors as in Example 2, and the residual catalyst activity measured. […]
The same procedure as in Example 8 was followed except allene was employed in place of 1,3-butadiene, and the resulting solution heated at 140° C. for 48 hours without removing excess allene.
A 20 milliliter sample of freshly generated catalyst solution (prepared as in Example 2) was charged to the glass reactors and the activity measured.
The same procedure as in Example 8 was followed except 0.4 grams of 1,3-cyclohexadiene was employed in place of 1,3-butadiene.

[2] = Residual propylene hydroformylation activity after heat treatment, Ligand D catalyst (Table 1); conditions: fresh catalyst control, no heat treatment
Description: as §1, with “About 20 milliliters of the solution was charged to a glass reactor via a syringe after purging the reactor with nitrogen (see Examples 14-20 below). After” for “After”
as §2
The same procedure as in Example 4 was followed except Ligand D (as identified herein) was employed in place of Ligand F. The results are given in Table 1.
The same procedure as in Example 10 was followed except the fresh catalyst solution contained Ligand D in place of Ligand F. The results are given in Table 1.

[3] = Decomposition of free Ligand F and deactivated complex formation at 145° C. by HPLC (FIG. 3); type: physicochemical; conditions: nitrogen 80 psig, no diene
Description: A catalyst solution (5 milliliters), 600 parts per million in rhodium and 0.8 weight percent in Ligand F generated as in Example 2 was charged to a 3 ounce Fisher Porter bottle and alternately flushed evacuated with nitrogen, then placed in a 145° C. oil bath under nitrogen (80 psig total pressure) and then monitored by HPLC at 1 and 3 hours for the Ligand F and deactivated complex concentrations. The free Ligand F concentration was 0.75, 0.57 and 0.37 weight percent at 0, 1 and 3 hours, respectively, while the deactivated complex concentration was 0.010, 0.57 and 0.89 weight percent at 0, 1 and 3 hours respectively.
The same procedure as in Example 21 was followed except the catalyst solution was treated with 1 milliliter of 1,3-butadiene and then heated at 145° C. for 3 hours (45 psig total pressure). The free Ligand F concentration measured by HPLC (high pressure liquid chromatography) was 0.75, 0.66, and 0.62 weight percent at 0, 1 and 3 hours, respectively, while the deactivated complex concentration was 0.010, 0.012, and 0.05 weight percent at 0, 1 and 3 hours respectively.

[4] = Propylene hydroformylation rate and colour of (TPP)3 Rh(CO)H catalyst after thermal treatment; conditions: for hydroformylation rate: control without butadiene, 100° C.; for color change of catalyst solution: control
Description: TPP is triphenylphosphine. 15 grams of this bright yellow solution was charged to a Fisher Porter bottle under inert gas. To this solution was added 20 psi of butadiene with stirring. The pressure dropped as the butadiene dissolved into the solution. The reactor was repressured twice with butadiene (20 psig) and then the reaction was place under a total of 45 psig with nitrogen. The solution was heated to 120° C. for 15 minutes. […] At ambient temperature, the reaction was placed under vacuum for 4 hours to remove any excess butadiene.
Since the solvent has a very high boiling point, the concentration of rhodium was assumed to have remained unchanged while under vacuum. Indeed, no change in volume was detected visually while under vacuum. 15.0 milliliters of the 275 parts per million solution was charged to a 100 milliliter autoclave.
This example is a control for Example 23. 15 grams of the catalyst solution prepared in Example 23 was charged to a Fisher Porter bottle under inert gas. 45 psig of nitrogen was added to the reaction vessel, then the reaction was heated to 120° C. for 15 minutes. […] 15.0 milliliters of the 275 parts per million solution was charged to a 100 milliliter autoclave.
A catalyst solution was prepared by adding 113 milligrams of (TPP)3 Rh(CO)H to 40.4 grams Filmer IBT® available from Union Carbide Corporation, Danbury, Conn., resulting in a rhodium concentration of 312 parts per million. At this point, the rhodium complex was a suspended in the solvent. Approximately 20 grams of this solution of (TPP)3 Rh(CO)H in tetraglyme was charged to a Fisher Porter bottle under inert gas. To this solution was added 30 psi of butadiene with stirring. The pressure dropped to 20 psig as the butadiene dissolved into the solution. The reactor was repressured twice with butadiene (30 psig) and then the pressure was adjusted to 60 psig with nitrogen. The solution was placed into 140° C. oil bath, which caused the reaction to become homogeneous within a minute. The reaction was maintained at 140° C. for 50 minutes. […] The reaction vessel was removed from the oil bath and the butadiene was vented from the reactor while the reaction was hot. After gas evolution ceased, the reaction vessel was placed carefully placed under dynamic vacuum until gas evolution had ceased for 10 minutes. The reaction was then placed under a slight positive pressure of nitrogen. […] 15.0 milliliters of the 284 parts per million solution was charged to a 100 milliliter autoclave.
This example serves as a control for Example 25. Approximately 20 grams of the solution prepared in Example 25 was charged to a Fisher Porter bottle under inert gas. 60 psig of nitrogen was added to the reaction vessel, then the reaction was heated to 140° C. for approximately 110 minutes. […] This solution was place into and out of the oil bath at the same time as the solution in Example 25. After thermal treatment, 10 weight percent of triphenylphosphine was added to the reaction mixture. […] 15 milliliters of the 284 parts per million solution was charged to a 100 milliliter autoclave.

[5] = 140° C./24 hours, excess diene present
[6] = 125° C./24 hours, no excess diene
[7] = 140° C./48 hours, excess diene present
[8] = 125° C./50 hours, no excess diene

SMILES: C1=CCCC=C1 [1,3-cyclohexadiene]
- % Activity [1, 5]: 4.13%
- Final Rate [1, 5]: 0.09 gram moles per liter per hour

SMILES: C=C=C [Allene, 1,2-propadiene]
- % Activity [1, 6]: 101%
- Final Rate [1, 6]: 2.22 gram moles per liter per hour
- % Activity [1, 7]: 47.2%
- Final Rate [1, 7]: 1.03 gram moles per liter per hour

SMILES: C=CC(=C)C [Isoprene, 2-methyl-1,3-butadiene]
- % Activity [1, 8]: 73.8%
- Final Rate [1, 8]: 1.55 gram moles per liter per hour

SMILES: COc1cc(-c2cc(OC)cc(C(C)(C)C)c2Op2oc3ccccc3c3ccccc3o2)c(Op2oc3ccccc3c3ccccc3o2)c(C(C)(C)C)c1 [Ligand D, 6,6'-[[3,3'-bis(1,1-dimethylethyl)-5,5'-dimethoxy-[1,1' -biphenyl]-2,2'-diyl]bis(oxy)]bis-dibenzo[d,f][1,3,2]dioxaphosphepin]
- Final Rate [2]: 1.16 gram moles per liter per hour

SMILES: CC(C)(C)c1cc(-c2cc(C(C)(C)C)cc(C(C)(C)C)c2Op2oc3ccccc3c3ccccc3o2)c(Op2oc3ccccc3c3ccccc3o2)c(C(C)(C)C)c1 [Ligand F]
- % Activity [1, 6]: 10.0%
- Final Rate [1, 6]: 0.22 gram moles per liter per hour
- Final Rate ([1]; fresh catalyst control, no heat treatment): 2.18 gram moles per liter per hour
- deactivated complex concentration ([3]; 0 hours): 0.010 weight percent
- free Ligand F concentration ([3]; 0 hours): 0.75 weight percent
- deactivated complex concentration ([3]; 1 hour): 0.57 weight percent
- free Ligand F concentration ([3]; 1 hour): 0.57 weight percent
- deactivated complex concentration ([3]; 3 hours): 0.89 weight percent
- free Ligand F concentration ([3]; 3 hours): 0.37 weight percent

SMILES: c1ccc(P(c2ccccc2)c2ccccc2)cc1 [triphenylphosphine, reference compound]
- hydroformylation rate ([4]; after 120° C. for 15 minutes under nitrogen, 275 ppm Rh, 115 psig): 0.8 gmol/L-h
- hydroformylation rate ([4]; after 140° C. for approximately 110 minutes, 284 ppm Rh, 95 psig): 0.3 gmol/L-h
- color change of catalyst solution ([4]; 120° C. for 15 minutes under nitrogen): turn from bright yellow to dark brown
- color change of catalyst solution ([4]; 140° C. for approximately 110 minutes under nitrogen): turn from bright yellow to dark brown
